# From paper PMC9414972, “α-Glucosidase and α-Amylase Inhibitory Potentials of Quinoline–1,3,4-oxadiazole Conjugates Bearing 1,2,3-Triazole with Antioxidant Activity, Kinetic Studies, and Computational Validation” (Pharmaceuticals, 2022)
# Like-named read-outs stand apart in the source and are kept apart here.
# Key:
# [1] = Ferric reducing antioxidant power (FRAP); conditions: ferric reducing antioxidant power
# Protocol: FRAP is a ferric (Fe^3+) to ferrous (Fe^2+) ions reduction assay that measures a compound’s electron-donating capacity, i.e., the antioxidant’s reducing power.
# The mixture was incubated at 50 °C for 20 min, followed by acidification with 100 μL trichloroacetic acid (10%). After centrifugation at 3500 rpm for 10 min, 200 μL of the supernatant was transferred into another test tube containing 200 μL of distilled water and 0.8 mL of FeCl3 (0.1%). Finally, the absorbance was read at 700 nm, and the total reductive antioxidant power was calculated thus: Ferric reducing antioxidant power (%)=Absorbance of compound/Absorbance of 500µM gallic acid×100
# α-glucosidase [2] = target: T1, α-glucosidase (Saccharomyces cerevisiae, UniProt P38158); test: Mode of α-glucosidase inhibition (enzyme kinetics, Lineweaver–Burk); assay type: biochemical; conditions: Lineweaver–Burk plots; inhibitor 0, 75, 150, 300 µM; pNPG
# T1 construct: purchased Merck
# From the text: Understanding a drug’s mode of inhibiting its target is crucial to improve the drug’s activity profile and target specificity. Although orthosteric inhibition, in which the ligand binds at the target’s active site, dominates among currently available drugs, allosteric inhibitors (i.e., drugs binding at regions […] the active site) are desirable due to their reduced vulnerability to active site mutation or to displacement through native substrate overload at the active site. Accordingly, the mode of α-glucosidase inhibition was investigated for promising compounds 4b, 4i, 4j, 4k, 4l, 12k, and 12m, using a time-dependent para-nitrophenyl-[…] (pNPG) assay; the results are presented as Lineweaver–Burk plots (Figure 4). […] Conceivably, this can result in decreased systemic glucose concentration thus alleviating postprandial hyperglycemia and its associated complications.
# The mode of inhibition of α-glucosidase of the 4b, 4i, 4j, 4k, 4l, 12k, and 12m compounds was determined using the method described by Kazeem et al. 2013, with modifications. Briefly, 50 µL of the 4b, 4i, 4j, 4k, 4l, 12k, and 12m compounds at (0 µM, 75 µM, 150 µM and 300 µM) concentrations were preincubated with 100 µL of α-glucosidase solution for 10 min at 25 °C in one set of tubes. In another set of tubes, α-glucosidase was preincubated with 50 µL of phosphate buffer (pH 6.9). 25 µL of pNPG at increasing concentrations (0.125–4.0 mg/mL) was added to both sets of solution to start the reaction. Immediately, the absorbance of the resulting solution was monitored for 2 min in a spectrophotometer at 405 nm. The amount of 4-nitrophenol released was determined from a 4-nitrophenol standard curve and then converted to reaction velocities.
# [3] = DPPH radical scavenging activity; conditions: DPPH radical scavenging, 30 min, 25 °C
# Protocol: The DPPH assay is used conventionally to quantify a compound’s ability to trap free radicals.
# The compounds were evaluated for their ability to scavenge stable DPPH radicals, using a modification of the method by Turkoglu et al..
# α-glucosidase [4] = target: T1, α-glucosidase; test: biochemical; conditions: pNPG substrate, pH 6.8, 37 °C; read-out: IC50 α-Glucosidase
# Protocol: The α-glucosidase inhibitory activity was evaluated using a previous method with slight modifications.
# [5] = target: T2, porcine pancreatic amylase (Sus scrofa, UniProt P00690); test: α-Amylase inhibitory activity (starch/DNS); assay type: biochemical; conditions: porcine pancreatic amylase, starch, pH 6.9, 25 °C; read-out: IC50 α-Amylase
# T2 construct: purchased Merck
# T2 sequence (P00690 16-511): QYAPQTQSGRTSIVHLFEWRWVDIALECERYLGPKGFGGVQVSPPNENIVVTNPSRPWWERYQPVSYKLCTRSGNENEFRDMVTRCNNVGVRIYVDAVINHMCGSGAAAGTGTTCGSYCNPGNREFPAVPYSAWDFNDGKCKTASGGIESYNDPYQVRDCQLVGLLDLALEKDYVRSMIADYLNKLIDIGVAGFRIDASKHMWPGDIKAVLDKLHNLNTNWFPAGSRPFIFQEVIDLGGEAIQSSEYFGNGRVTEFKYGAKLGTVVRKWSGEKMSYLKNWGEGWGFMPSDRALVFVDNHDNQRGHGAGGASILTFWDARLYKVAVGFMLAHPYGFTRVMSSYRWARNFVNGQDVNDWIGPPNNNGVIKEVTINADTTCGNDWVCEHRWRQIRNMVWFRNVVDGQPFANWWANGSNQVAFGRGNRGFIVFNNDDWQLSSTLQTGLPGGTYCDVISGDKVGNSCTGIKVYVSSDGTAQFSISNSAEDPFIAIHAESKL
# Protocol: α-Amylase inhibitory activity was determined according to Ibitoye et al. with slight modifications. […] The reaction in the mixture was terminated with a 1 mL dinitrosalicylate reagent before boiling for 10 min. The cooled mixture was diluted with 5 mL distilled water, and the absorbance was read at 540 nm. The inhibitory activity was calculated using the formula below: % Inhibition=1−Absorbance of compound/Absorbance of control×100
# [6] = Nitric oxide (NO) scavenging activity; conditions: nitric oxide radical scavenging, 37 °C, 2 h
# Protocol: The screening of the present compound series for NO radical scavenging activity (Table 2) identified excellent NO scavengers.
# The antioxidant capacity of the compounds to scavenge nitric oxide radicals was determined using a modified version of the protocol by Kurian et al.. Briefly, 250 μL of sodium nitroprusside (10 mM) prepared in sodium phosphate buffer (pH 7.4) was added to 500 μL of the compound solution (62.5–500 μM) or distilled water (control). The resulting solution was incubated at 37 °C for 2 h. Then, 250 μL of Griess reagent was added to the reaction mixture before the absorbance was measured at 546 nm. The nitric oxide scavenging activity of the compounds was calculated with the formula: Nitric oxide scavenging (%)=1−Absorbance of compound/Absorbance of control×100
# α-glucosidase [7] = target: T1, α-glucosidase; parameters: method as in ref 22 (Taha et al.); conditions: ref 22 (Taha et al.), cited from earlier work
# α-glucosidase [8] = target: T1, α-glucosidase; parameters: method as in ref 23 (Izgi et al.); conditions: ref 23 (Izgi et al.); read-out: α-glucosidase inhibition IC50; cited from earlier work
# α-glucosidase [9] = target: T1, α-glucosidase; parameters: method as in ref 28 (Asemanipoor et al.); conditions: ref 28 (Asemanipoor et al.); read-out: α-glucosidase inhibition IC50; cited from earlier work
# T1 sequence (P38158 whole entry): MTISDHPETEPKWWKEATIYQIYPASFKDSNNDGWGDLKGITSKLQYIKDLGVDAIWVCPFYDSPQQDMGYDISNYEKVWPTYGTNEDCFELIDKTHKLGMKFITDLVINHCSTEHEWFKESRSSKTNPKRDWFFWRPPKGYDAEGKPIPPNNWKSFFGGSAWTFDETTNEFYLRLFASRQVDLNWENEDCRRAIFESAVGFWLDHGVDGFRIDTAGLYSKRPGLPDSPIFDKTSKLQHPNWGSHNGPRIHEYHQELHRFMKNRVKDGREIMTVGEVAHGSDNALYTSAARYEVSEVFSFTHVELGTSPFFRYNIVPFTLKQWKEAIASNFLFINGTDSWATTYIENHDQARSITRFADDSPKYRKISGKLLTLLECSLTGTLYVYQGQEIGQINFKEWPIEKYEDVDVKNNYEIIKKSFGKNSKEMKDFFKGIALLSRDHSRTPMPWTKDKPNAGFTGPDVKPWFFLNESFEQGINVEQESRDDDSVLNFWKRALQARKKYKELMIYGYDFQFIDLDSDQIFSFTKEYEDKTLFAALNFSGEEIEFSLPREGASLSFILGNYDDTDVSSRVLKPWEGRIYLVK
SMILES,IC50 [1] [µM],mode of α-glucosidase inhibition (α-glucosidase [2]),melting point [°C],IC50 [3] [µM],IC50 (α-glucosidase [4]) [µM],IC50 [5] [µM],IC50 [6] [µM],fold superior α-glucosidase inhibition compared with acarbose (α-glucosidase [7]) [fold],IC50 (α-glucosidase [7]; read-out: α-glucosidase inhibition IC50) [µM],IC50 (α-glucosidase [8]) [µM],IC50 (α-glucosidase [9]) [µM]
"Clc1ccc(CSc2nnc(COc3cccc4cccnc34)o2)cc1 [4l, 2-[(4-Chlorobenzyl)thio]-5-[(quinolin-8-yloxy)methyl]-1,3,4-oxadiazole]",> 500,non-competitive,101.4 to 104.2,77.7,25.2,> 500,> 500,,,,
"c1ccc(-n2cc(CSc3nnc(COc4cccc5cccnc45)o3)nn2)cc1 [12k, 2-{[(1-Phenyl-1H-1,2,3-triazol-4-yl)methyl]thio}-5-[(quinolin-8-yloxy)methyl]-1,3,4-oxadiazole]",> 500,non-competitive,122 to 128,85.7,22.5,> 500,> 500,,,,
"Fc1ccc(-n2cc(CSc3nnc(COc4cccc5cccnc45)o3)nn2)cc1 [12m, 2-{[(1-(4-Fluorophenyl)-1H-1,2,3-triazol-4-yl)methyl]thio}-5-[(quinolin-8-yloxy)methyl]-1,3,4-oxadiazole]",> 500,non-competitive,134 to 140,88.7,26.8,> 500,> 500,,,,
O=C(N/N=C/c1ccc(O)c(O)c1)c1ccc(-c2nnc(-c3ccc4ncccc4c3)o2)cc1 [A],,,,,,,,15,2.6,,
c1ccc(-c2nnc(-c3c[nH]c4ncccc34)o2)cc1 [B],,,,,,,,,,400,
CCc1ccc(NC(=O)Cn2cc(COc3ccc(-c4nc5ccccc5[nH]4)cc3)nn2)cc1 [C],,,,,,,,,,,35
